# Values of other authors as cited in US10329245B2, “Method for making a prenyl group-substituted tyrosine compound” (King Fahd University of Petroleum and Minerals, priority 2015, dated 2019).
# Where two headings read alike, the source gives them in different places.
# Tested on: AGS (human gastric adenocarcinoma) cells
# Settings: AGS cell lines, p<0.01
structure (smiles),measurement,setting,value
"CC(=O)N[C@@H](Cc1ccc(O)c(CC=C(C)C)c1)C(=O)O [compound 1, (S)-2-Acetamido-3-(4-hydroxy-3-(3-methylbut-2-enyl)phenyl)propanoic acid]","cell viability, % of control levels",75 μM compound 1 combined with 100 ng/mL TRAIL,77±7%
same,"cell viability, % of control levels",150 μM compound 1 combined with 100 ng/mL TRAIL,67±5%
